This note sets out measurements from patent US20210317134A1, “UBIQUITIN-SPECIFIC-PROCESSING PROTEASE 7 (USP7) MODULATORS AND USES THEREOF” (RAPT THERAPEUTICS, INC., priority 2019, published 2021).

Sequence of USP7 (Q93009 whole entry): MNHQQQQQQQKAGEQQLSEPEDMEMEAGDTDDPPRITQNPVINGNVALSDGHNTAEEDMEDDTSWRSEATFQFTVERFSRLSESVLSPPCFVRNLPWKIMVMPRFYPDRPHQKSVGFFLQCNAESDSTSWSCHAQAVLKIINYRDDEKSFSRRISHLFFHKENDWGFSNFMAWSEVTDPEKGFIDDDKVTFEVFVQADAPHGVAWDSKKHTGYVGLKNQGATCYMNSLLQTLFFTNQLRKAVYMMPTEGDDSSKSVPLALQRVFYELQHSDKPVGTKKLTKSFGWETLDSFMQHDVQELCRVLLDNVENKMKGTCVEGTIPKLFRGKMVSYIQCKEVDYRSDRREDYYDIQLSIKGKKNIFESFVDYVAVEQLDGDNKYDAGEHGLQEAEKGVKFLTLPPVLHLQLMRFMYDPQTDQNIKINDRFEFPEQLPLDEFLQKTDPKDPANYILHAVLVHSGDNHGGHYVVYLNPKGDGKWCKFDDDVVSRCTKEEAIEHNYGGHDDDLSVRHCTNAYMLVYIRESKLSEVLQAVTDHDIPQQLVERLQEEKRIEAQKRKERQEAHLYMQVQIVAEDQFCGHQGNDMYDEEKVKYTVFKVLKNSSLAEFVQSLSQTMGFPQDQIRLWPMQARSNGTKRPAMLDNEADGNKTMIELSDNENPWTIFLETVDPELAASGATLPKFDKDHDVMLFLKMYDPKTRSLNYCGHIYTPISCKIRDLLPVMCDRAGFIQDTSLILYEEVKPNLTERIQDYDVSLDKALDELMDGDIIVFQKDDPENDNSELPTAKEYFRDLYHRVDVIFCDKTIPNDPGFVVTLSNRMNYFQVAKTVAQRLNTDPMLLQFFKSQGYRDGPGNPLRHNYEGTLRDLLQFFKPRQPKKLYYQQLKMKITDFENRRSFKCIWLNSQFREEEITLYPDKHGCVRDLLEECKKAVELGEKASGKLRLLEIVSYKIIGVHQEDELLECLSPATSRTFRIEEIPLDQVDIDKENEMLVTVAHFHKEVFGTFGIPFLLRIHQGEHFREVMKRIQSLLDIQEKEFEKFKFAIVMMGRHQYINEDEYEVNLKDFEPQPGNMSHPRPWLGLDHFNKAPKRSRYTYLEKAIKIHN

The test has as its target USP7 (Homo sapiens, UniProt Q93009). The test can be described thus: USP7 inhibitory potency (Table 1). The format is biochemical.
As usually defined, the IC50 is the point on the concentration scale where inhibition reaches its midpoint. High values mean weaker potency, low ones greater potency. `CN(C)[C@H]1CCN(C(=O)[C@H]2Cc3cc(Cl)cc(-c4ccnc5cc(CO)sc45)c3O2)C1` [((R)-5-chloro-7-(2-(hydroxymethyl)thieno[3,2-b]pyridin-7-yl)-2,3-dihydrobenzofuran-2-yl)((S)-3-(dimethylamino)pyrrolidin-1-yl)methanone] came in with an IC50 of 1000 to 10000 nM.
`O=C([C@H]1Cc2cc(Cl)cc(-c3ccnc4cc(Cn5cnccc5=O)sc34)c2O1)N1CCNCC1` [(R)-3-((7-(5-chloro-2-(piperazine-1-carbonyl)-2,3-dihydrobenzofuran-7-yl)thieno[3,2-b]pyridin-2-yl)methyl)pyrimidin-4(3H)-one] displayed an IC50 of less than 1000 nM.
In the case of `CCC(O)c1cc2nccc(-c3cc(Cl)cc4c3O[C@@H](c3nn(C)c5c3CNCC5)C4)c2s1` (stereo partly drawn) [1-(7-((R)-5-chloro-2-(1-methyl-4,5,6,7-tetrahydro-1H-pyrazolo[4,3-c]pyridin-3-yl)-2,3-dihydrobenzofuran-7-yl)thieno[3,2-b]pyridin-2-yl)propan-1-ol] it was less than 1000 nM; in that of `CN(C)C1CCN(C(=O)[C@H]2Cc3cc(Cl)cc(-c4ccnc5ccsc45)c3O2)CC1` [(R)-(5-chloro-7-(thieno[3,2-b]pyridin-7-yl)-2,3-dihydrobenzofuran-2-yl)(4-(dimethylamino)piperidin-1-yl)methanone], less than 1000 nM.
For the compound `CCC(O)c1cc2ncnc(-c3cc(Cl)cc4c3O[C@@H](c3ocnc3CNCC(F)(F)F)C4)c2s1` (stereo partly drawn) [1-(4-((R)-5-chloro-2-(4-(((2,2,2-trifluoroethyl)amino)methyl)oxazol-5-yl)-2,3-dihydrobenzofuran-7-yl)thieno[3,2-d]pyrimidin-6-yl)propan-1-ol], the IC50 lay within 10000 to 30000 nM.
Next, `O=C(C1Cc2cc(Cl)cc(-c3ccnc4[nH]ccc34)c2O1)N1CCN([C@H]2CC[C@H](c3ccccc3)CC2)CC1` (stereo partly drawn) [(5-chloro-7-(1H-pyrrolo[2,3-b]pyridin-4-yl)-2,3-dihydrobenzofuran-2-yl)(4-((1s,4r)-4-phenylcyclohexyl)piperazin-1-yl)methanone]: 1000 to 10000 nM; `CC[C@H](O)c1cc2nccc(-c3cc(Cl)cc4c3O[C@](C)(c3onc5c3CNCC5)C4)c2s1` [(S)-1-(7-((S)-5-chloro-2-methyl-2-(4,5,6,7-tetrahydroisoxazolo[4,3-c]pyridin-3-yl)-2,3-dihydrobenzofuran-7-yl)thieno[3,2-b]pyridin-2-yl)propan-1-ol]: 1000 to 10000 nM; `CCC(O)c1cc2nccc(-c3cc(Cl)cc4c3O[C@@H](C(=O)N3CCC(c5cnc[nH]5)CC3)C4)c2s1` (stereo partly drawn) [(4-(1H-imidazol-5-yl)piperidin-1-yl)((2R)-5-chloro-7-(2-(1-hydroxypropyl)thieno[3,2-b]pyridin-7-yl)-2,3-dihydrobenzofuran-2-yl)methanone]: 1000 to 10000 nM.
Next, `CCC(O)c1cc2nccc(-c3cc(Cl)cc4c3O[C@@H](c3onc5c3CNCC5)C4)c2o1` (stereo partly drawn) [drawing 1522, 1-(7-((R)-5-chloro-2-(4,5,6,7-tetrahydroisoxazolo[4,3-c]pyridin-3-yl)-2,3-dihydrobenzofuran-7-yl)furo[3,2-b]pyridin-2-yl)propan-1-ol]: less than 1000 nM; `CN(C)C(=O)C1Cc2nccc(-c3cc(Cl)cc4c3O[C@@H](c3onc5c3CNCC5)C4)c2C1` (stereo partly drawn) [4-((R)-5-chloro-2-(4,5,6,7-tetrahydroisoxazolo[4,3-c]pyridin-3-yl)-2,3-dihydrobenzofuran-7-yl)-N,N-dimethyl-6,7-dihydro-5H-cyclopenta[b]pyridine-6-carboxamide]: 1000 to 10000 nM.
The compound `OCc1cc2ncnc(-c3cc(Cl)cc4c3O[C@@H](c3onc5c3CNCC5)C4)c2s1` [(R)-(4-(5-chloro-2-(4,5,6,7-tetrahydroisoxazolo[4,3-c]pyridin-3-yl)-2,3-dihydrobenzofuran-7-yl)thieno[3,2-d]pyrimidin-6-yl)methanol] gave an IC50 of less than 1000 nM.
In turn, `CN[C@@H]1CCCN(C(=O)[C@H]2Cc3cc(Cl)cc(-c4ccnc5ccsc45)c3O2)C1` [((R)-5-chloro-7-(thieno[3,2-b]pyridin-7-yl)-2,3-dihydrobenzofuran-2-yl)((R)-3-(methylamino)piperidin-1-yl)methanone] gave an IC50 of 10000 to 30000 nM.
Next, `O=C(C1Cc2cc(Cl)cc(-c3ccnc4[nH]ccc34)c2O1)N1CCC(O)(c2cccc3ncccc23)CC1` (stereo not drawn) [(5-chloro-7-(1H-pyrrolo[2,3-b]pyridin-4-yl)-2,3-dihydrobenzofuran-2-yl)(4-hydroxy-4-(quinolin-5-yl)piperidin-1-yl)methanone]: 1000 to 10000 nM; `O=C([C@H]1Cc2cc(Cl)cc(-c3ccnc4ccsc34)c2O1)N1CCC(N2CCCC2)CC1` [(R)-(5-chloro-7-(thieno[3,2-b]pyridin-7-yl)-2,3-dihydrobenzofuran-2-yl)(4-(pyrrolidin-1-yl)piperidin-1-yl)methanone]: less than 1000 nM.
`COC(=O)NCc1cc2nccc(-c3cc(Cl)cc4c3O[C@@H](c3onc5c3CNCC5)C4)c2s1` [Methyl (R)-((7-(5-chloro-2-(4,5,6,7-tetrahydroisoxazolo[4,3-c]pyridin-3-yl)-2,3-dihydrobenzofuran-7-yl)thieno[3,2-b]pyridin-2-yl)methyl)carbamate] gave an IC50 of less than 1000 nM.
`O=C([C@H]1Cc2cc(Cl)cc(-c3ccnc4cc(CN5C(=O)COC5=O)sc34)c2O1)N1CCNCC1` [(R)-3-((7-(5-chloro-2-(piperazine-1-carbonyl)-2,3-dihydrobenzofuran-7-yl)thieno[3,2-b]pyridin-2-yl)methyl)oxazolidine-2,4-dione]: the IC50 was less than 1000 nM.
In the case of `O=C([C@H]1Cc2cc(Cl)cc(-c3ccnc4cc(CN5C(=O)CNC5=O)sc34)c2O1)N1CCNCC1` [(R)-3-((7-(5-chloro-2-(piperazine-1-carbonyl)-2,3-dihydrobenzofuran-7-yl)thieno[3,2-b]pyridin-2-yl)methyl)imidazolidine-2,4-dione] it was less than 1000 nM.
Take `O=C1CCC(=O)N1Cc1cc2nccc(-c3cc(Cl)cc4c3O[C@@H](c3onc5c3CC(N3CCC3)CC5)C4)c2s1` (stereo partly drawn) [1-((7-((2R)-2-(5-(azetidin-1-yl)-4,5,6,7-tetrahydrobenzo[c]isoxazol-3-yl)-5-chloro-2,3-dihydrobenzofuran-7-yl)thieno[3,2-b]pyridin-2-yl)methyl)pyrrolidine-2,5-dione]: the IC50 is less than 1000 nM.
`O=C(C1Cc2cc(Cl)cc(-c3ccnc4[nH]ccc34)c2O1)N1CCN(c2ccncc2)CC1` (stereo not drawn) [(5-chloro-7-(1H-pyrrolo[2,3-b]pyridin-4-yl)-2,3-dihydrobenzofuran-2-yl)(4-(pyridin-4-yl)piperazin-1-yl)methanone] showed an IC50 of 1000 to 10000 nM.
In the case of `CCc1cc2nccc(-c3cc(Cl)cc4c3O[C@@H](c3onc5c3CNCC5)C4)c2s1` [(R)-3-(5-chloro-7-(2-ethylthieno[3,2-b]pyridin-7-yl)-2,3-dihydrobenzofuran-2-yl)-4,5,6,7-tetrahydroisoxazolo[4,3-c]pyridine] it was less than 1000 nM; in that of `CNC1CCN(C(=O)[C@H]2Cc3cc(Cl)cc(-c4ccnc5ccsc45)c3O2)CC1` [(R)-(5-chloro-7-(thieno[3,2-b]pyridin-7-yl)-2,3-dihydrobenzofuran-2-yl)(4-(methylamino)piperidin-1-yl)methanone], less than 1000 nM; in that of `CN(C)[C@H]1CCc2noc(C3Cc4cc(Cl)cc(-c5ccnc6cc(CO)sc56)c4O3)c2C1` (stereo partly drawn) [(7-(5-chloro-2-((S)-5-(dimethylamino)-4,5,6,7-tetrahydrobenzo[c]isoxazol-3-yl)-2,3-dihydrobenzofuran-7-yl)thieno[3,2-b]pyridin-2-yl)methanol], 1000 to 10000 nM.
In turn, `COc1ccc2c(-c3cc(Cl)cc4c3OC(C(=O)N3CCNCC3)C4)ccnc2c1` (stereo not drawn) [(5-chloro-7-(7-methoxyquinolin-4-yl)-2,3-dihydrobenzofuran-2-yl)(piperazin-1-yl)methanone] gave an IC50 of 1000 to 10000 nM.
Next, `O=C1CN(Cc2cc3nccc(-c4cc(Cl)cc5c4O[C@@H](C(=O)N4CCNCC4)C5)c3s2)C(=O)N1` [(R)-1-((7-(5-chloro-2-(piperazine-1-carbonyl)-2,3-dihydrobenzofuran-7-yl)thieno[3,2-b]pyridin-2-yl)methyl)imidazolidine-2,4-dione]: less than 1000 nM; `CN[C@H]1CCCN(C(=O)[C@H]2Cc3cc(Cl)cc(-c4ccnc5cc(CO)sc45)c3O2)C1` [((R)-5-chloro-7-(2-(hydroxymethyl)thieno[3,2-b]pyridin-7-yl)-2,3-dihydrobenzofuran-2-yl)((S)-3-(methylamino)piperidin-1-yl)methanone]: less than 1000 nM.
Consider `O=C(C1Cc2cc(Cl)cc(-c3ccnc4[nH]ccc34)c2O1)N1CCC(O)(c2ccccc2F)CC1` (stereo not drawn) [(5-chloro-7-(1H-pyrrolo[2,3-b]pyridin-4-yl)-2,3-dihydrobenzofuran-2-yl)(4-(2-fluorophenyl)-4-hydroxypiperidin-1-yl)methanone], for which the IC50 was 1000 to 10000 nM.
Compound `C[C@@H]1CCN(Cc2cc3nccc(-c4cc(Cl)cc5c4O[C@@H](C(=O)N4CCNCC4)C5)c3s2)C1=O` [(R)-1-((7-((R)-5-chloro-2-(piperazine-1-carbonyl)-2,3-dihydrobenzofuran-7-yl)thieno[3,2-b]pyridin-2-yl)methyl)-3-methylpyrrolidin-2-one] yielded an IC50 of less than 1000 nM.
Next, `O=C([C@H]1Cc2cc(Cl)cc(-c3ccnc4cc(CO)sc34)c2O1)N1CCn2nc(C(F)(F)F)nc2C1` [(R)-(5-chloro-7-(2-(hydroxymethyl)thieno[3,2-b]pyridin-7-yl)-2,3-dihydrobenzofuran-2-yl)(2-(trifluoromethyl)-5,6-dihydro-[1,2,4]triazolo[1,5-a]pyrazin-7(8H)-yl)methanone]: 1000 to 10000 nM.
Next, `O[C@@]1(c2cc3nccc(-c4cc(Cl)cc5c4O[C@@H](c4onc6c4CNCC6)C5)c3s2)CCOC1` [(S)-3-(7-((R)-5-chloro-2-(4,5,6,7-tetrahydroisoxazolo[4,3-c]pyridin-3-yl)-2,3-dihydrobenzofuran-7-yl)thieno[3,2-b]pyridin-2-yl)tetrahydrofuran-3-ol]: less than 1000 nM.
Turning to `O=C1CCC(=O)N1Cc1cc2nccc(-c3cc(Cl)cc4c3O[C@@H](c3onc5c3CNCC5)C4)n2n1` [(R)-1-((7-(5-chloro-2-(4,5,6,7-tetrahydroisoxazolo[4,3-c]pyridin-3-yl)-2,3-dihydrobenzofuran-7-yl)pyrazolo[1,5-a]pyrimidin-2-yl)methyl)pyrrolidine-2,5-dione], the IC50 was less than 1000 nM.
